Species: Rattus norvegicus
Experiment: DrugMatrix - Regimen: Daily Repeat
Type: toxicity, organism-based, Sprague-Dawley
Design: regimen Daily Repeat, gender Male, age 6-8 weeks
Settings: in vivo, po, route oral GAVAGE; for POTASSIUM / SODIUM / TOTAL BILIRUBIN / TOTAL PROTEIN / URIC ACID / ALANINE AMINOTRANSFERASE / ALBUMIN / ALKALINE PHOSPHATASE / ASPARTATE AMINOTRANSFERASE / BLOOD UREA NITROGEN / CARBON DIOXIDE / CHLORIDE / CHOLESTEROL / CREATINE PHOSPHOKINASE / CREATININE / GLUCOSE / LACTATE DEHYDROGENASE / LIPASE / PHOSPHORUS: tissue Plasma
[1] = 60 mg/kg, 120 h, dose level Low, time 5 day, vehicle 100 % WATER
[2] = 600 mg/kg, 72 h, tissue Blood, dose level High, time 3 day, […]
[3] = 600 mg/kg, 72 h, tissue Blood, dose level High, time 3 day, vehicle 100 % WATER
[4] = 600 mg/kg, 72 h, dose level High, time 3 day, […]
[5] = 600 mg/kg, 72 h, dose level High, time 3 day, vehicle 100 % WATER

ClC(Cl)Cl [CHLOROFORM]
POTASSIUM [1]: 6.14 MEQ/L
SODIUM [1]: 145.6 MEQ/L
TOTAL BILIRUBIN [1]: 0.1 mg/dL
TOTAL PROTEIN [1]: 6.3 G/DL
URIC ACID [1]: 1.5 mg/dL
ABSOLUTE EOSINOPHIL [2]: 29.6 CELLS/uL
ABSOLUTE LYMPHOCYTE [2]: 12329.2 CELLS/uL
ABSOLUTE MONOCYTE [2]: 476.6 CELLS/uL
ABSOLUTE SEGMENTED NEUTROPHIL [2]: 1764.6 CELLS/uL
EOSINOPHIL [2]: 0.2%
ERYTHROCYTE COUNT [2]: 7.17 x10E6/uL
HEMATOCRIT [2]: 43%
HEMOGLOBIN [2]: 15.88 G/DL
LEUKOCYTE COUNT [2]: 14.6 x10E3/uL
LYMPHOCYTE [2]: 84.4%
MEAN CORPUSCULAR HEMOGLOBIN [2]: 22.2 pg
MEAN CORPUSCULAR HEMOGLOBIN CONCENTRATION [2]: 37 G/DL
MEAN CORPUSCULAR VOLUME [2]: 60.02 fL
MONOCYTE [2]: 3.2%
NEUTROPHIL [2]: 12.2%
PLATELET COUNT [2]: 1301.6 x10E3/uL
ABSOLUTE BASOPHIL [3]: 0 CELLS/uL
ABSOLUTE EOSINOPHIL [3]: 0 CELLS/uL
ABSOLUTE LYMPHOCYTE [3]: 7700 CELLS/uL
ABSOLUTE MONOCYTE [3]: 77.67 CELLS/uL
ABSOLUTE SEGMENTED NEUTROPHIL [3]: 589 CELLS/uL
BASOPHIL [3]: 0%
EOSINOPHIL [3]: 0%
ERYTHROCYTE COUNT [3]: 6.05 x10E6/uL
HEMATOCRIT [3]: 38.4%
HEMOGLOBIN [3]: 14.97 G/DL
LEUKOCYTE COUNT [3]: 8.37 x10E3/uL
LYMPHOCYTE [3]: 88%
MEAN CORPUSCULAR HEMOGLOBIN [3]: 24.73 pg
MEAN CORPUSCULAR HEMOGLOBIN CONCENTRATION [3]: 38.97 G/DL
MEAN CORPUSCULAR VOLUME [3]: 63.43 fL
MONOCYTE [3]: 1.33%
NEUTROPHIL [3]: 10.67%
NUCLEATED RED BLOOD CELLS [3]: 0 /100WBC
PLATELET COUNT [3]: 1080.33 x10E3/uL
ALANINE AMINOTRANSFERASE [4]: 196 u/L
ALBUMIN [4]: 4.36 G/DL
ALKALINE PHOSPHATASE [4]: 902 u/L
ASPARTATE AMINOTRANSFERASE [4]: 462.4 u/L
BLOOD UREA NITROGEN [4]: 20.8 mg/dL
CARBON DIOXIDE [4]: 16.6 mmol/L
CHLORIDE [4]: 107.4 MEQ/L
CHOLESTEROL [4]: 77.6 mg/dL
CREATINE PHOSPHOKINASE [4]: 516 u/L
CREATININE [4]: 0.44 mg/dL
GLUCOSE [4]: 134.8 mg/dL
LACTATE DEHYDROGENASE [4]: 597.4 u/L
LIPASE [4]: 10.6 u/L
PHOSPHORUS [4]: 13.48 mg/dL
POTASSIUM [4]: 5.66 MEQ/L
SODIUM [4]: 144.48 MEQ/L
TOTAL BILIRUBIN [4]: 0.72 mg/dL
TOTAL PROTEIN [4]: 6.04 G/DL
URIC ACID [4]: 2.72 mg/dL
ALANINE AMINOTRANSFERASE [5]: 73.33 u/L
ALBUMIN [5]: 4.4 G/DL
ALKALINE PHOSPHATASE [5]: 416 u/L
ASPARTATE AMINOTRANSFERASE [5]: 103.67 u/L
BLOOD UREA NITROGEN [5]: 14.67 mg/dL
CARBON DIOXIDE [5]: 34.33 mmol/L
CHLORIDE [5]: 98.67 MEQ/L
CHOLESTEROL [5]: 81.67 mg/dL
CREATINE PHOSPHOKINASE [5]: 203.67 u/L
CREATININE [5]: 0.22 mg/dL
GLUCOSE [5]: 153.67 mg/dL
LACTATE DEHYDROGENASE [5]: 179 u/L
LIPASE [5]: 10.67 u/L
PHOSPHORUS [5]: 10 mg/dL
POTASSIUM [5]: 5.43 MEQ/L

From ChEMBL document CHEMBL3885881, “DrugMatrix”
